According to PubChem BioAssay AID2020 (NMMLSC, 2009):
Activity calls are given as the source filed them.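 How the source made its calls: active means EC50 at or below 30 µM together with a response span of at least a set limit; inactive means the rest.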

Biological target: Cell division control protein 42 homolog (Homo sapiens) (UniProt P60953)
Assay: fluorescent GTP binding blockers of active-mutant Cdc42 – biochemical, pyrazoline analogs, multiplex bead flow cytometry, Ki, SAR follow-up (AID 2020)
Conditions: bead-based flow cytometry, Bodipy-FL-GTP binding; for Ki: measured here: Ki calculated from EC50

Sequence of Cell division control protein 42 homolog (Homo sapiens) (P60953 whole entry, looked up, change not shown): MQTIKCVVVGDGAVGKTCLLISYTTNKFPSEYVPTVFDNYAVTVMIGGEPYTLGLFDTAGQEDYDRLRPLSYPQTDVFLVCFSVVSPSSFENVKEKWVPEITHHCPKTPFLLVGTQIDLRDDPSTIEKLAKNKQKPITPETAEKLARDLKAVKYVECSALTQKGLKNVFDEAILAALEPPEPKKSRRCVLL

| SMILES | EC50 | Ki [nM] |
| --- | --- | --- |
| COc1ccc(C2CC(c3cccc(N(C)C)c3)=NN2c2ccc(S(N)(=O)=O)cc2)cc1 (stereo not drawn) | > 30 µM (inactive) |  |
| Cc1ccccc1C1CC(c2ccccc2)=NN1c1ccc(S(N)(=O)=O)cc1 (stereo not drawn) | 13.6 µM | 2100 |
| COc1ccc(C2=NN(c3cccc(F)c3)C(c3ccc(OC)cc3)C2)cc1 (stereo not drawn) | > 30 µM (inactive) |  |
| COc1ccc(C2=NN(c3ccc(Cl)c(Cl)c3)C(c3ccc(OC)cc3)C2)cc1 (stereo not drawn) | > 30 µM (inactive) |  |
| COc1cccc(C2CC(c3ccccc3)=NN2c2ccc(S(N)(=O)=O)cc2)c1 (stereo not drawn) | 4.32 µM | 670 |
| COc1ccc(C2CC(c3ccccc3OC)=NN2c2ccc(S(N)(=O)=O)cc2)cc1 (stereo not drawn) | 5.52 µM | 850 |
| O=[N+]([O-])c1cccc(C2CC(c3ccc(F)cc3)=NN2c2ccccc2)c1 (stereo not drawn) | > 30 µM (inactive) |  |
| NS(=O)(=O)c1ccc(N2N=C(c3ccccc3)CC2c2ccc(Br)cc2)cc1 (stereo not drawn) | 1.7 µM | 260 |
| COc1ccc(C2=NN(c3ccccc3F)C(c3ccc(F)cc3)C2)cc1 (stereo not drawn) | > 30 µM (inactive) |  |
| Clc1ccc(N2N=C(c3ccccc3)CC2c2ccccc2)cc1 (stereo not drawn) | > 30 µM (inactive) |  |
| Brc1ccc(N2N=C(c3ccccc3)CC2c2ccccc2)cc1 (stereo not drawn) | > 30 µM (inactive) |  |
| CN(C)c1ccc(C2CC(c3ccc(Cl)cc3)=NN2c2ccccc2)cc1 (stereo not drawn) | inactive | 4670 |
| COc1ccc(C2CC(c3ccccc3)=NN2c2ccc(C(=O)O)cc2)cc1 (stereo not drawn) | > 30 µM (inactive) |  |
| COc1ccc(C2CC(c3cccc(C)c3)=NN2c2ccc(S(N)(=O)=O)cc2)cc1 (stereo not drawn) | 4.05 µM | 630 |
| COc1ccc(C2=NN(c3ccccc3)C(c3ccccc3C(F)(F)F)C2)cc1 (stereo not drawn) | inactive | 3500 |
| COc1ccc(C2CC(c3ccc(F)cc3)=NN2c2cc(Cl)ccc2Cl)cc1 (stereo not drawn) | > 30 µM (inactive) |  |
| O=C(O)c1ccc(N2N=C(c3ccccc3)CC2c2ccccc2)cc1 (stereo not drawn) | > 30 µM (inactive) |  |
| COc1ccc(C2=NN(c3cccc(F)c3)C(c3ccc(Cl)cc3)C2)cc1 (stereo not drawn) | inactive | 4860 |
| COc1ccc(C2CC(c3ccsc3)=NN2c2ccc(S(N)(=O)=O)cc2)cc1 (stereo not drawn) | 7.34 µM | 1140 |
| COc1ccc(C2CC(c3ccccc3)=NN2c2cccc(S(N)(=O)=O)c2)cc1 (stereo not drawn) | inactive | 10 |
| CC(=O)Oc1ccc(C2=NN(c3ccccc3)C(c3ccccc3)C2)cc1 (stereo not drawn) | inactive | 3770 |

| SMILES | EC50 | Ki [nM] |
| --- | --- | --- |
| COc1ccc(C2CC(c3ccc(Cl)cc3)=NN2c2ccc(S(N)(=O)=O)cc2)cc1 (stereo not drawn) | 4.05 µM | 630 |
| NS(=O)(=O)c1ccc(N2N=C(c3ccccc3)CC2c2cccc(Cl)c2)cc1 (stereo not drawn) | 3.62 µM | 560 |
| Cc1onc(-c2ccccc2)c1-c1ccc(S(N)(=O)=O)cc1 | > 30 µM (inactive) |  |
| O=S(=O)(c1ccc(N2N=C(c3ccccc3)CC2c2ccccc2)cc1)C(F)F (stereo not drawn) | > 30 µM (inactive) |  |
| O=S(=O)(O)c1ccc(N2N=C(c3ccccc3)CC2c2ccccc2)cc1 (stereo not drawn) | > 30 µM (inactive) |  |
| O=[N+]([O-])c1ccc(N2N=C(c3ccccc3)CC2c2ccc(O)cc2)cc1 (stereo not drawn) | > 30 µM (inactive) |  |
| Cc1cccc(C2CC(c3ccccc3)=NN2c2ccc(S(N)(=O)=O)cc2)c1 (stereo not drawn) | 5.3 µM | 820 |
| COc1ccccc1C1CC(c2ccccc2)=NN1c1ccc(S(N)(=O)=O)cc1 (stereo not drawn) | > 30 µM (inactive) |  |
| COc1ccc(C2CC(c3ccc(Cl)cc3)=NN2c2ccccc2)cc1OC (stereo not drawn) | > 30 µM (inactive) |  |
| NS(=O)(=O)c1ccc(N2N=C(c3ccccc3)CC2c2ccccc2Br)cc1 (stereo not drawn) | > 30 µM (inactive) |  |
| Fc1ccccc1C1CC(c2ccc(Br)cc2)=NN1c1ccc(Br)cc1 (stereo not drawn) | > 30 µM (inactive) |  |
| COc1ccc(C2CC(c3ccccc3)=NN2c2ccc([N+](=O)[O-])cc2)cc1 (stereo not drawn) | > 30 µM (inactive) |  |
| COc1ccccc1N1N=C(c2ccccc2)CC1c1ccccc1 (stereo not drawn) | > 30 µM (inactive) |  |
| Clc1cccc(N2N=C(c3ccccc3)CC2c2ccccc2)c1 (stereo not drawn) | > 30 µM (inactive) |  |
| COc1ccc(C2=NN(c3ccccc3)C(c3ccc(Cl)cc3)C2)cc1 (stereo not drawn) | > 30 µM (inactive) |  |
| COc1ccc(C2CC(c3cccc(Cl)c3)=NN2c2ccc(S(N)(=O)=O)cc2)cc1 (stereo not drawn) | 2.08 µM | 320 |
| COc1ccc(C2CC(C(C)(C)C)=NN2c2ccc(S(N)(=O)=O)cc2)cc1 (stereo not drawn) | > 30 µM (inactive) |  |
| COc1ccc(C2CC(c3cccc(F)c3)=NN2c2ccc(S(N)(=O)=O)cc2)cc1 (stereo not drawn) | 3.45 µM | 530 |
| COc1ccc(-c2cc(-c3ccccc3)nn2-c2ccc(S(N)(=O)=O)cc2)cc1 | inactive | 380 |
| COc1ccc(C2CC(c3ccc(F)cc3)=NN2c2cccc(F)c2)cc1OC (stereo not drawn) | inactive | 4880 |
| COc1ccc(C2=NN(c3ccccc3)C(c3ccc(OC)c(OC)c3C(=O)O)C2)cc1 (stereo not drawn) | > 30 µM (inactive) |  |

| SMILES | EC50 | Ki [nM] |
| --- | --- | --- |
| NS(=O)(=O)c1ccc(N2N=C(c3ccccc3)CC2c2ccccc2Cl)cc1 (stereo not drawn) | 7.4 µM | 1140 |
| COc1ccc(C2CC(c3cccc(OC)c3)=NN2c2ccc(S(N)(=O)=O)cc2)cc1 (stereo not drawn) | 1.59 µM | 250 |
| Cc1ccc(C2CC(c3ccccc3)=NN2c2ccc(S(N)(=O)=O)cc2)cc1 (stereo not drawn) | 5.04 µM | 780 |
| Cc1ccc(-c2cc(C(F)(F)F)nn2-c2ccc(S(N)(=O)=O)cc2)cc1 | > 30 µM (inactive) |  |
| O=[N+]([O-])c1cccc(C2CC(c3ccccc3)=NN2c2ccccc2)c1 (stereo not drawn) | > 30 µM (inactive) |  |
| Fc1ccc(C2=NN(c3cccc(Br)c3)C(c3ccccc3)C2)cc1 (stereo not drawn) | > 30 µM (inactive) |  |
| COc1ccc(C2CC(c3ccc(F)cc3)=NN2c2ccccc2)cc1OC (stereo not drawn) | > 30 µM (inactive) |  |
| COc1ccc(C2CC(c3ccccc3)=NN2c2ccc(S(N)(=O)=O)cc2)cc1OC (stereo not drawn) | 6.05 µM | 940 |
| COc1ccc(C2CC(c3ccc(N(C)C)cc3)=NN2c2ccc(S(N)(=O)=O)cc2)cc1 (stereo not drawn) | > 30 µM (inactive) |  |
| COc1ccc(C2CC(c3ccccc3Br)=NN2c2ccc(S(N)(=O)=O)cc2)cc1 (stereo not drawn) | > 30 µM (inactive) |  |
| COc1ccc(C2CC(C3CCCCC3)=NN2c2ccc(S(N)(=O)=O)cc2)cc1 (stereo not drawn) | > 30 µM (inactive) |  |
| COc1ccc(C2CC(c3ccc(Br)cc3)=NN2c2ccccc2Cl)cc1 (stereo not drawn) | > 30 µM (inactive) |  |
| COc1ccc(C2CC(c3cccs3)=NN2c2ccc(S(N)(=O)=O)cc2)cc1 (stereo not drawn) | 3.98 µM | 620 |
| COc1ccc(C2=NN(c3ccc(Cl)cc3)C(c3ccccc3F)C2)cc1 (stereo not drawn) | > 30 µM (inactive) |  |
| COc1ccc(C2CC(c3ccc(C(F)(F)F)cc3)=NN2c2ccc(S(N)(=O)=O)cc2)cc1 (stereo not drawn) | > 30 µM (inactive) |  |
| COc1ccc(C2CC(c3ccccc3)=NN2c2ccc(C(N)=O)cc2)cc1 (stereo not drawn) | > 30 µM (inactive) |  |
| COc1ccccc1C1CC(c2ccccc2)=NN1c1ccccc1 (stereo not drawn) | inactive | 90 |
| COc1ccc(C2CC(c3ccncc3)=NN2c2ccc(S(N)(=O)=O)cc2)cc1 (stereo not drawn) | > 30 µM (inactive) |  |
| CN(C)c1ccc(C2CC(c3ccc(F)cc3)=NN2c2ccccc2)cc1 (stereo not drawn) | > 30 µM (inactive) |  |
| COc1ccc(C2CC(c3ccc(C)cc3)=NN2c2ccc(S(N)(=O)=O)cc2)cc1 (stereo not drawn) | inactive | 370 |
| COc1ccc(C2CC(c3ccccc3)=NN2c2ccc(Cl)c(C(=O)O)c2)cc1OC (stereo not drawn) | > 30 µM (inactive) |  |
